Experimental data: patent US9181234B2, “Antibacterial compounds” (priority 2010, dated 2015)
Converted amounts (≈) assume the structure as drawn.

What was measured:
[1] = test system: Streptococcus pyogenes (Isolate ID ATCC 51339); experiment: Antibacterial activity, MIC, S. pyogenes; format: cell-based; conditions: Streptococcus pyogenes, ATCC51339, Gram positive strain; broth microdilution or agar dilution
Experimental: (§1) Bacterial Assay: Determination of Antibacterial Activity
(§2) Compounds of the invention were tested for antimicrobial activity by susceptibility testing in liquid or on solid media. MICs for compounds against each strain were determined by the broth microdilution or agar dilution method according to the guidelines of the Clinical Laboratories and Standards Institute, formerly the National Committee for Clinical Laboratory Standards (Clinical Laboratories and Standards Institute. Methods for Dilution Antimicrobial Susceptibility Tests for Bacteria That Grow Aerobically; Approved Standard—Seventh Edition. Document M7-A7. CLSI, Wayne, Pa., 2006; Clinical Laboratories and Standards Institute. The gram positive bacterial strains tested include S. aureus (Staphylococcus aureus (Isolate ID ATCC 29213)), E. faecalis (Enterococcus faecalis (Isolate ID ATCC 29212)) and S. pyogenes (Streptococcus pyogenes (Isolate ID ATCC 51339)). The gram negative bacterial strains tested include H. influenzae (Haemophilus influenzae (Isolate ID ATCC 49247))

physchem = conditions: for solubility at 24 h: kinetic from dmso stock
Experimental: Turbimetric Assay: Determination of Solubility
The solubility of the compounds was measured using a turbidimetric method. A series of doubling dilutions of compounds were prepared in neat dimethyl sulfoxide (DMSO). 5 μl samples were diluted twenty-fold into 95 μl volumes of 100 mM citrate buffer (pH 4), phosphate buffered saline (PBS, pH 7.4) or carbonate-bicarbonate buffer (pH 9) in microtitre assay plates and allowed to reach equilibrium at room temperature for 24 hours. The absorbance within each well of the plate was read spectrophotometrically at a wavelength of 620 nm. A precipitate forms when the maximum aqueous solubility level is reached. The value quoted is the highest concentration where the compound was in solution i.e. where no measurable precipitate was present. […] ND=not determined

[2] = test system: Staphylococcus aureus (Isolate ID ATCC 29213); experiment: Antibacterial activity, MIC, S. aureus; format: cell-based; conditions: Staphylococcus aureus, ATCC29213, Gram positive strain; broth microdilution or agar dilution
Experimental: as §1, §2

[3] = test system: Haemophilus influenzae (Isolate ID ATCC 49247); experiment: Antibacterial activity, MIC, H. influenzae; format: cell-based; conditions: Haemophilus influenzae, ATCC49247; Gram negative strain; broth microdilution or agar dilution
Experimental: as §1, §2

[4] = pH 7.4, aqueous buffer, Max Solubility
[5] = pH 7.4, aqueous buffer, Solubility (pH 7.4)
[6] = pH 7.4, aqueous buffer, Solubility Range
[7] = pH 7.4, aqueous buffer, Solubility Range (maximum solubility)
[8] = pH 9, aqueous buffer, Max Solubility
[9] = pH 9, aqueous buffer, Solubility Range (maximum solubility)

| Structure (SMILES) | MIC [1] [µg/mL] | solubility at 24 h (physchem; [4]) [µg/mL] | solubility at 24 h (physchem; [5]) [µg/mL] | solubility at 24 h (physchem; [6]) [µg/mL] | solubility at 24 h (physchem; [7]) [µg/mL] | MIC [2] [µg/mL] | MIC [3] [µg/mL] | solubility at 24 h (physchem; [8]) [µg/mL] | solubility at 24 h (physchem; [9]) [µg/mL] | Solubility (pH 7.4) (physchem; 24 h, pH 7.4) |
| --- | --- | --- | --- | --- | --- | --- | --- | --- | --- | --- |
| CCNC(=O)Nc1nc2cc(-c3cnc(N4CCC(C)(C(=O)O)CC4)nc3)cc(COC)c2s1 [Compound 202, 1-[5-[2-(Ethylcarbamoylamino)-7-(methoxymethyl)-1,3-benzothiazol-5-yl]pyrimidin-2-yl]-4-methyl-piperidine-4-carboxylic acid] | 1 to 16 (≈ 2.06 to 33 µM) | ≥ 800 | ≥ 800 | > 800 | > 800 | 1 to 16 (≈ 2.06 to 33 µM) | 0.25 to 1 (≈ 0.516 to 2.06 µM) | – | – | – |
| CCNC(=O)Nc1nc2cc(-c3cnc(N4CCC(C)(C(=O)O)CC4)nc3)cc(/C=N/OCC)c2s1 [Compound 204] | 0.25 to 1 (≈ 0.489 to 1.95 µM) | ≥ 800 | ≥ 800 | > 800 | > 800 | 0.25 to 1 (≈ 0.489 to 1.95 µM) | 1 to 16 (≈ 1.95 to 31.3 µM) | – | – | – |
| CCNC(=O)Nc1nc2cc(-c3cnc(N4CCC(C)(C(=O)O)CC4)nc3)c(OC)c(Br)c2s1 [Compound 208, 1-[5-[7-bromo-2-(ethylcarbamoylamino)-6-methoxy-1,3-benzothiazol-5-yl]pyrimidin-2-yl]-4-methyl-piperidine-4-carboxylic acid] | 1 to 16 (≈ 1.82 to 29.1 µM) | – | 100 (≈ 182 µM) | 12.5 to 400 (≈ 22.7 to 728 µM) | – | 0.25 to 1 (≈ 0.455 to 1.82 µM) | 1 to 16 (≈ 1.82 to 29.1 µM) | 200 (≈ 364 µM) | 12.5 to 400 (≈ 22.7 to 728 µM) | – |
| CCNC(=O)Nc1nc2cc(-c3cnc(N4CCC(CC)(C(=O)O)CC4)nc3)nc(-c3ccccn3)c2s1 [Compound 210] | ≤ 0.25 | 200 (≈ 375 µM) | 200 (≈ 375 µM) | 12.5 to 400 (≈ 23.5 to 751 µM) | 12.5 to 400 (≈ 23.5 to 751 µM) | 0.25 to 1 (≈ 0.469 to 1.88 µM) | 1 to 16 (≈ 1.88 to 30 µM) | – | – | – |

Further lines, results first:

| MIC [1] [µg/mL] | solubility at 24 h (physchem; [4]) [µg/mL] | solubility at 24 h (physchem; [5]) [µg/mL] | solubility at 24 h (physchem; [6]) [µg/mL] | solubility at 24 h (physchem; [7]) [µg/mL] | MIC [2] [µg/mL] | MIC [3] [µg/mL] | solubility at 24 h (physchem; [8]) [µg/mL] | solubility at 24 h (physchem; [9]) [µg/mL] | Solubility (pH 7.4) (physchem; 24 h, pH 7.4) | Structure (SMILES) |
| --- | --- | --- | --- | --- | --- | --- | --- | --- | --- | --- |
| 1 to 16 (≈ 2.01 to 32.1 µM) | – | 100 (≈ 201 µM) | 12.5 to 400 (≈ 25.1 to 802 µM) | – | 1 to 16 (≈ 2.01 to 32.1 µM) | 1 to 16 (≈ 2.01 to 32.1 µM) | ≥ 800 | > 800 | – | CCNC(=O)Nc1nc2cc(-c3cnc(N4CCC(CC)(C(=O)O)CC4)nc3)cc(COC)c2s1 [Compound 203, 4-Ethyl-1-[5-[2-(ethylcarbamoylamino)-7-(methoxymethyl)-1,3-benzothiazol-5-yl]pyrimidin-2-yl]piperidine-4-carboxylic acid] |
| 0.25 to 1 (≈ 0.405 to 1.62 µM) | – | 400 (≈ 649 µM) | 400 to 800 (≈ 649 to 1300 µM) | – | 0.25 to 1 (≈ 0.405 to 1.62 µM) | 1 to 16 (≈ 1.62 to 25.9 µM) | ≥ 800 | > 800 | – | CCNC(=O)Nc1nc2cc(-c3cnc(N4CCC(C)(C(=O)O)CC4)nc3)cc(-c3ccc(CN4CCOCC4)cn3)c2s1 [Compound 205] |
| ≤ 0.25 | ≥ 800 | ≥ 800 | > 800 | > 800 | 0.25 to 1 (≈ 0.483 to 1.93 µM) | 1 to 16 (≈ 1.93 to 30.9 µM) | – | – | – | CCNC(=O)Nc1nc2cc(-c3cnc(N4CCC(CC)(C(=O)O)C4)nc3)cc(-c3ccccn3)c2s1 (stereo not drawn) [Compound 206] |
| 0.25 to 1 (≈ 0.49 to 1.96 µM) | – | 100 (≈ 196 µM) | 12.5 to 400 (≈ 24.5 to 783 µM) | – | 0.25 to 1 (≈ 0.49 to 1.96 µM) | 1 to 16 (≈ 1.96 to 31.3 µM) | 400 (≈ 783 µM) | 400 to 800 (≈ 783 to 1570 µM) | – | CCNC(=O)Nc1nc2cc(-c3cnc(N4CCC(CC)(C(=O)O)CC4)nc3)cc(C(=O)CC)c2s1 [Compound 207, 4-Ethyl-1-(5-(2-(3-ethylureido)-7-propionylbenzo[d]thiazol-5-yl)pyrimidin-2-yl)piperidine-4-carboxylic acid] |
| 0.25 to 1 (≈ 0.466 to 1.86 µM) | – | 200 (≈ 373 µM) | 12.5 to 400 (≈ 23.3 to 745 µM) | – | 0.25 to 1 (≈ 0.466 to 1.86 µM) | 1 to 16 (≈ 1.86 to 29.8 µM) | 400 (≈ 745 µM) | 400 to 800 (≈ 745 to 1490 µM) | – | CCNC(=O)Nc1nc2cc(-c3csc(N4CCC(CC)(C(=O)O)CC4)n3)cc(-c3ccccn3)c2s1 [Compound 209, 4-Ethyl-1-[4-[2-(ethylcarbamoylamino)-7-(2-pyridyl)-1,3-benzothiazol-5-yl]thiazol-2-yl]piperidine-4-carboxylic acid] |
| 0.25 to 1 (≈ 0.463 to 1.85 µM) | ≥ 800 | – | – | > 800 | 0.25 to 1 (≈ 0.463 to 1.85 µM) | 1 to 16 (≈ 1.85 to 29.6 µM) | – | – | ≧800 μg/mL | CCNC(=O)Nc1nc2cc(-c3cnc(N4CCC(CC)(C(=O)O)CC4)nc3)cc(/C(CC)=N\OC)c2s1 [Compound 211, (Z)-4-Ethyl-1-(5-(2-(3-ethylureido)-7-(1-(methoxyimino)propyl)benzo[d]thiazol-5-yl)pyrimidin-2-yl)piperidine-4-carboxylic acid] |
